Here are results for 25 compounds from US4450269A, “Mono-5-substituted-3-chloro-4H-1,2,6-thiadiazin-4-one antifungal agents” (FMC Corporation, priority 1980, dated 1984).

This test relates to Helminthosporium oryzae. The test is described as follows: Mycelial growth test. The following applies: for Percent Fungus Growth Inhibition: HO, 72 hours; for inhibition at 5 ppm / inhibition at 10 ppm / inhibition at 20 ppm / inhibition at 40 ppm: Bipolaris oryzae, 72 h; for inhibition at 5 ppm: read-out: Percent Fungus Growth Inhibition, HO, 5 ppm, 72 hours; for inhibition at 10 ppm: read-out: Percent Fungus Growth Inhibition, HO, 10 ppm, 72 hours; for inhibition at 20 ppm: read-out: Percent Fungus Growth Inhibition, HO, 20 ppm, 72 hours; for inhibition at 40 ppm: read-out: Percent Fungus Growth Inhibition, HO, 40 ppm, 72 hours.

Turning to “3-chloro-5-[methylaminocarbonyloxy)phenoxyl]-4H-1,2,6-thiadiazin-4-one [Compound 36]”, the “Percent Fungus Growth Inhibition” value (5 ppm) was determined as 78%, the “Percent Fungus Growth Inhibition” value (10 ppm) stood at 78%, the “Percent Fungus Growth Inhibition” value (20 ppm) was found to be 89% and the “Percent Fungus Growth Inhibition” value (40 ppm) is given as 100%.
In the case of `O=c1c(Cl)nsnc1Oc1ccccc1` [Compound 2, 3-chloro-5-phenoxy-4H--1,2,6-thiadiazin-4-one], the inhibition – broadly, how much of the control response was suppressed – at 5 ppm worked out at 55%; the inhibition at 10 ppm worked out at 64%; the inhibition at 20 ppm amounted to 100%; the inhibition at 40 ppm is 100%.
Consider `Cc1ccc(Oc2nsnc(Cl)c2=O)cc1` [Compound 3, 3-chloro-5-(4-methylphenoxy)-4H--1,2,6-thiadiazin-4-one], for which the inhibition at 5 ppm is 55%, the inhibition at 10 ppm came out at 64%, the inhibition at 20 ppm was 100% and the inhibition at 40 ppm was found to be 100%.
With `CC(C)(C)c1ccc(Oc2nsnc(Cl)c2=O)cc1` [Compound 4, 3-chloro-5-(4-tert-butylphnoxy)-4H--1,2,6-thiadiazin-4-one], the inhibition at 5 ppm is 0%, the inhibition at 10 ppm is 0%, the inhibition at 20 ppm was 24% and the inhibition at 40 ppm turned out to be 33%.
On to `COc1ccc(Oc2nsnc(Cl)c2=O)cc1` [Compound 5, 3-chloro-5-(4-methoxyphenoxy)4H--1,2,6-thiadiazin-4-one], for which the inhibition at 5 ppm is 50%, the inhibition at 10 ppm came to 64%, the inhibition at 20 ppm turned out to be 73% and the inhibition at 40 ppm came out at 100%.
Taken in the same sequence, the figures for `CCCCOc1ccc(Oc2nsnc(Cl)c2=O)cc1` [Compound 6, 3-chloro-5-(4-n-butoxyphenoxy)-4H--1,2,6-thiadiazin-4-one] were 0%, 0%, 0% and 48%.
Taken in the same sequence, the figures for `CCOC(=O)c1ccc(Oc2nsnc(Cl)c2=O)cc1` [Compound 7, 3-chloro-5-(4-ethoxycarbonylphenoxy)-4H--1,2,6-thiadiazin-4-one] were 48%, 43%, 100% and 100%.
For the compound `CC(=O)Nc1ccc(Oc2nsnc(Cl)c2=O)cc1` [Compound 8, 5-(4-acetylaminophenoxy)-3-chloro-4H--1,2,6-thiadiazin-4-one], the inhibition at 5 ppm came out at 24%, the inhibition at 10 ppm was 33%, the inhibition at 20 ppm stood at 0% and the inhibition at 40 ppm was 81%.
Taken in the same sequence, the figures for `O=c1c(Cl)nsnc1Oc1ccc([N+](=O)[O-])cc1` [Compound 9, 3-chloro-5-(4-nitrophenoxy)-4H--1,2,6-thiadiazin-4-one] were 50%, 82%, 86% and 100%.
As to `N#Cc1ccc(Oc2nsnc(Cl)c2=O)cc1` [Compound 10, 3-chloro-5-(4-cyanophenoxy)-4H--1,2,6-thiadiazin-4-one], the inhibition at 5 ppm amounted to 57%, the inhibition at 10 ppm came to 52%, the inhibition at 20 ppm came out at 100% and the inhibition at 40 ppm was found to be 100%.
Consider `O=c1c(Cl)nsnc1Oc1ccc(F)cc1` [Compound 11, 3-chloro-5-(4-fluorophenoxy)-4H--1,2,6-thiadiazin-4-one], for which the inhibition at 5 ppm was 62%, the inhibition at 10 ppm stood at 100%, the inhibition at 20 ppm came to 100% and the inhibition at 40 ppm is 100%.
For `O=c1c(Cl)nsnc1Oc1ccc(Cl)cc1` [Compound 12, 3-chloro-5-(4-chlorophenoxy)-4H--1,2,6-thiadiazin-4-one], the inhibition at 5 ppm is 59%, the inhibition at 10 ppm stood at 59%, the inhibition at 20 ppm came to 100% and the inhibition at 40 ppm worked out at 100%.
As for `O=c1c(Cl)nsnc1Oc1cccc(Cl)c1` [Compound 13, 3-chloro-5-(3-chlorophenoxy)-4H--1,2,6-thiadiazin-4-one], the inhibition at 5 ppm worked out at 71%, the inhibition at 10 ppm was found to be 86%, the inhibition at 20 ppm came out at 76% and the inhibition at 40 ppm worked out at 81%.
`O=c1c(Cl)nsnc1Oc1ccccc1Cl` [Compound 14, 3-chloro-5-(2-chlorophenoxy)-4H--1,2,6-thiadiazin-4-one]: the inhibition at 5 ppm came to 71%, the inhibition at 10 ppm worked out at 71%, the inhibition at 20 ppm came out at 100% and the inhibition at 40 ppm was found to be 100%.
For `O=c1c(Cl)nsnc1Oc1ccc(Br)cc1` [Compound 15, 3-chloro-5-(4-bromophenoxy)-4H--1,2,6-thiadiazin-4-one], the inhibition at 5 ppm was 57%, the inhibition at 10 ppm worked out at 90%, the inhibition at 20 ppm was 95% and the inhibition at 40 ppm came out at 100%.
On to `O=c1c(Cl)nsnc1Oc1ccc(Cl)c(Cl)c1` [Compound 16, 3-chloro-5-(3,4-dichlorophenoxy)-4H--1,2,6-thiadiazin-4-one], for which the inhibition at 5 ppm is 64%, the inhibition at 10 ppm amounted to 55%, the inhibition at 20 ppm amounted to 55% and the inhibition at 40 ppm was determined as 82%.
For `O=c1c(Cl)nsnc1Oc1ccc(Cl)cc1Cl` [Compound 17, 3-chloro-5-(2,4-dichlorophenoxy)-4H--1,2,6-thiadiazin-4-one], the inhibition at 5 ppm is 100%, the inhibition at 10 ppm is 100%, the inhibition at 20 ppm was 100% and the inhibition at 40 ppm stood at 100%.
Regarding `O=c1c(Cl)nsnc1Oc1c(Cl)cccc1Cl` [Compound 18, 3-chloro-5-(2,6-dichlorophenoxy)-4H--1,2,6-thiadiazin-4-one], the inhibition at 5 ppm came out at 86%, the inhibition at 10 ppm was determined as 86%, the inhibition at 20 ppm came out at 100% and the inhibition at 40 ppm came out at 100%.
For `O=c1c(Cl)nsnc1Oc1cccc(Cl)c1Cl` [Compound 19, 3-chloro-5-(2,3-dichlorophenoxy)-4H--1,2,6-thiadiazin-4-one], the inhibition at 5 ppm stood at 100%, the inhibition at 10 ppm came out at 90%, the inhibition at 20 ppm was 100% and the inhibition at 40 ppm stood at 100%.
Take `O=c1c(Cl)nsnc1Oc1cc(Cl)cc(Cl)c1` [Compound 20, 3-chloro-5-(3,5-dichlorophenoxy)-4H--1,2,6-thiadiazin-4-one]: the inhibition at 5 ppm was 100%, the inhibition at 10 ppm was determined as 100%, the inhibition at 20 ppm is 100% and the inhibition at 40 ppm is 100%.
As for `Cc1cccc(Oc2nsnc(Cl)c2=O)c1` [Compound 21, 3-chloro-5-(3-methylphenoxy)-4H--1,2,6-thiadiazin-4-one], the inhibition at 5 ppm was determined as 64%, the inhibition at 10 ppm stood at 86%, the inhibition at 20 ppm was 100% and the inhibition at 40 ppm is 100%.
Take `Cc1ccccc1Oc1nsnc(Cl)c1=O` [Compound 22, 3-chloro-5-(2-methylphenoxy)-4H--1,2,6-thiadiazin-4-one]: the inhibition at 5 ppm was found to be 100%, the inhibition at 10 ppm is 100%, the inhibition at 20 ppm stood at 100% and the inhibition at 40 ppm was found to be 100%.
With `Cc1ccc(Oc2nsnc(Cl)c2=O)c(C)c1` [Compound 23, 3-chloro-5-(2,4-dimethylphenoxy)-4H--1,2,6-thiadiazin-4-one], the inhibition at 5 ppm was 100%, the inhibition at 10 ppm amounted to 100%, the inhibition at 20 ppm amounted to 100% and the inhibition at 40 ppm came to 100%.
As to `Cc1cccc(C)c1Oc1nsnc(Cl)c1=O` [Compound 24, 3-chloro-5-(2,6-dimethylphenoxy)-4H--1,2,6-thiadiazin-4-one], the inhibition at 5 ppm stood at 86%, the inhibition at 10 ppm worked out at 100%, the inhibition at 20 ppm came to 100% and the inhibition at 40 ppm came to 100%.
Consider `Cc1cc(C)cc(Oc2nsnc(Cl)c2=O)c1` [Compound 25, 3-chloro-5-(3,5-dimethylphenoxy)-4H--1,2,6-thiadiazin-4-one], for which the inhibition at 5 ppm turned out to be 79%, the inhibition at 10 ppm worked out at 100%, the inhibition at 20 ppm is 100% and the inhibition at 40 ppm was determined as 100%.
